Laboratory results as given in PubChem BioAssay AID1963967 (Molecular Pharmacology Branch, DTP, NCI, 2024).
“And” between values parts separate entries of the source, which are not always exact repeats. Equal entries are not always repeated.

System: 855422-203-R-J1-PDC spheroids with HUVEC/MSC, viability
Assay: Anticancer human tumor 855422-203-R-J1-PDC patient-derived bladder carcinoma cell line growth inhibition [PI3K]
Conditions: for viability, T/C: stronger effect = lower value; active means viability on the fitted dose curve at most 10% of control; inactive means the rest
Summary of the method: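 Spheroid viability read-out. Co-cultures contained the tumor line plus HUVEC and human MSCs. Each agent was paired with a PI3K inhibitor (inavolisib, alpelisib, duvelisib, copanlisib) across half-log dilutions starting at clinical Cmax, or at 10 microM when Cmax was unknown.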

[1] = curve of first compound, second compound 0.0316 µM
[2] = curve of first compound, second compound 0.1 µM
[3] = curve of first compound, second compound 0.316 µM
[4] = curve of first compound, second compound 1 µM
[5] = curve of first compound, second compound 3.16 µM
[6] = curve of first compound, second compound 10 µM
[7] = second compound 0.0316 µM, first compound 0.0316 µM
[8] = second compound 0.0316 µM, first compound 0.1 µM
[9] = second compound 0.1 µM, first compound 0.0316 µM
[10] = second compound 0.1 µM, first compound 0.1 µM
[11] = second compound 0.316 µM, first compound 0.0316 µM
[12] = second compound 0.316 µM, first compound 0.1 µM
[13] = second compound 1 µM, first compound 0.0316 µM
[14] = second compound 1 µM, first compound 0.1 µM
[15] = second compound 3.16 µM, first compound 0.0316 µM
[16] = second compound 3.16 µM, first compound 0.1 µM
[17] = second compound 10 µM, first compound 0.0316 µM
[18] = second compound 10 µM, first compound 0.1 µM
[19] = second compound 0.0316 µM, first compound 0.316 µM
[20] = second compound 0.0316 µM, first compound 1 µM
[21] = second compound 0.0316 µM, first compound 3.16 µM
[22] = second compound 0.0316 µM, first compound 10 µM
[23] = second compound 0.1 µM, first compound 0.316 µM
[24] = second compound 0.1 µM, first compound 1 µM
[25] = second compound 0.1 µM, first compound 3.16 µM
[26] = second compound 0.1 µM, first compound 10 µM
[27] = second compound 0.316 µM, first compound 0.316 µM
[28] = second compound 0.316 µM, first compound 1 µM
[29] = second compound 0.316 µM, first compound 3.16 µM
[30] = second compound 0.316 µM, first compound 10 µM
[31] = second compound 1 µM, first compound 0.316 µM
[32] = second compound 1 µM, first compound 1 µM
[33] = second compound 1 µM, first compound 3.16 µM
[34] = second compound 1 µM, first compound 10 µM
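Further: agents incubated with spheroids for one week before read-out.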
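Wherever viability, T/C is given: 100% = DMSO vehicle-treated control wells.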

CC(C)NCC(C(=O)N1CCN(c2ncnc3c2C(C)CC3O)CC1)c1ccc(Cl)cc1 (stereo not given)
inactive: viability, T/C (compound 0.0316 µM) 93.1% [middle of 4 runs] | viability, T/C (compound 0.1 µM) 82.9% [middle of 4 runs] | viability, T/C (compound 0.316 µM) 78.5% [middle of 4 runs] | viability, T/C (compound 1 µM) 51.7% [middle of 4 runs] | viability, T/C (compound 3.16 µM) 36.8% [middle of 4 runs] | viability, T/C (compound 10 µM) 19.9% (2×) and 18.6% and 19.6%
1.25 µM [middle of 4 runs]: IC50 (curve of compound)

CC(=O)c1c(C)c2cnc(Nc3ccc(N4CCNCC4)cn3)nc2n(C2CCCC2)c1=O + CC(Nc1ncnc2nc[nH]c12)c1cc2cccc(Cl)c2c(=O)n1-c1ccccc1
> 100 nM: IC50 [1] | IC50 [2] | IC50 [3] | IC50 [4] | IC50 [5]
inactive: viability, T/C (second compound 0.0316 µM, first compound 0.000316 µM) 106% | viability, T/C (second compound 0.0316 µM, first compound 0.001 µM) 95.8% | viability, T/C (second compound 0.0316 µM, first compound 0.00316 µM) 105% | viability, T/C (second compound 0.0316 µM, first compound 0.01 µM) 93.4% | viability, T/C [7] 100% | viability, T/C [8] 79% | viability, T/C (second compound 0.1 µM, first compound 0.000316 µM) 111% | viability, T/C (second compound 0.1 µM, first compound 0.001 µM) 92.5% | viability, T/C (second compound 0.1 µM, first compound 0.00316 µM) 105% | viability, T/C (second compound 0.1 µM, first compound 0.01 µM) 99.8% | viability, T/C [9] 94.4% | viability, T/C [10] 76.2% | viability, T/C (second compound 0.316 µM, first compound 0.000316 µM) 101% | viability, T/C (second compound 0.316 µM, first compound 0.001 µM) 108% | viability, T/C (second compound 0.316 µM, first compound 0.00316 µM) 110% | viability, T/C (second compound 0.316 µM, first compound 0.01 µM) 95.3% | viability, T/C [11] 105% | viability, T/C [12] 81.3% | viability, T/C (second compound 1 µM, first compound 0.000316 µM) 91.9% | viability, T/C (second compound 1 µM, first compound 0.001 µM) 102% | viability, T/C (second compound 1 µM, first compound 0.00316 µM) 102% | viability, T/C (second compound 1 µM, first compound 0.01 µM) 101% | viability, T/C [13] 95.9% | viability, T/C [14] 73.9% | viability, T/C (second compound 3.16 µM, first compound 0.000316 µM) 98.7% | viability, T/C (second compound 3.16 µM, first compound 0.001 µM) 96.4% | viability, T/C (second compound 3.16 µM, first compound 0.00316 µM) 101% | viability, T/C (second compound 3.16 µM, first compound 0.01 µM) 93.2% | viability, T/C [15] 85.4% | viability, T/C [16] 54% | viability, T/C (second compound 10 µM, first compound 0.000316 µM) 84.7% | viability, T/C (second compound 10 µM, first compound 0.001 µM) 84.3% | viability, T/C (second compound 10 µM, first compound 0.00316 µM) 80% | viability, T/C (second compound 10 µM, first compound 0.01 µM) 73.9% | viability, T/C [17] 74.3% | viability, T/C [18] 36.9%
65.4 nM: IC50 [6]

C=CC(=O)N1CCN(c2nc(=O)n(-c3c(C)ccnc3C(C)C)c3nc(-c4c(O)cccc4F)c(F)cc23)C(C)C1 (stereo not given) + COc1c(OCCCN2CCOCC2)ccc2c3n(c(=NC(=O)c4cnc(N)nc4)nc12)CCN3
inactive: viability, T/C (second compound 0.00316 µM, first compound 0.0316 µM) 94% | viability, T/C (second compound 0.00316 µM, first compound 0.1 µM) 90.8% | viability, T/C (second compound 0.00316 µM, first compound 0.316 µM) 116% | viability, T/C (second compound 0.00316 µM, first compound 1 µM) 98.8% | viability, T/C (second compound 0.00316 µM, first compound 3.16 µM) 101% | viability, T/C (second compound 0.00316 µM, first compound 10 µM) 97% | viability, T/C (second compound 0.01 µM, first compound 0.0316 µM) 82% | viability, T/C (second compound 0.01 µM, first compound 0.1 µM) 99.4% | viability, T/C (second compound 0.01 µM, first compound 0.316 µM) 98% | viability, T/C (second compound 0.01 µM, first compound 1 µM) 89.9% | viability, T/C (second compound 0.01 µM, first compound 3.16 µM) 93.6% | viability, T/C (second compound 0.01 µM, first compound 10 µM) 103% | viability, T/C [7] 52% | viability, T/C [8] 60.2% | viability, T/C [19] 66% | viability, T/C [20] 79.2% | viability, T/C [21] 87.2% | viability, T/C [22] 92.6% | viability, T/C [9] 24.5% | viability, T/C [10] 34.4% | viability, T/C [23] 33.5% | viability, T/C [24] 42.1% | viability, T/C [25] 37.2% | viability, T/C [26] 34.9%
active: viability, T/C [11] 9.32% | viability, T/C [12] 8.33% | viability, T/C [27] 10.5% | viability, T/C [28] 10.1% | viability, T/C [29] 11.6% | viability, T/C [30] 7.98% | viability, T/C [13] 3.32% | viability, T/C [14] 4.63% | viability, T/C [31] 3.78% | viability, T/C [32] 3.95% | viability, T/C [33] 3.61% | viability, T/C [34] 1.93%
< 31.6 nM: IC50 [2] | IC50 [3] | IC50 [4]
> 10000 nM: IC50 (curve of first compound, second compound 0.00316 µM) | IC50 (curve of first compound, second compound 0.01 µM) | IC50 [1]

C[C@@H](NC(=O)c1ncnc(N)c1Cl)c1ncc(C(=O)Nc2cc(C(F)(F)F)c(Cl)cn2)s1 + CC(Nc1ncnc2nc[nH]c12)c1cc2cccc(Cl)c2c(=O)n1-c1ccccc1
> 10000 nM: IC50 [1] | IC50 [2] | IC50 [3] | IC50 [4] | IC50 [5] | IC50 [6]
inactive: viability, T/C [7] 120% | viability, T/C [8] 109% | viability, T/C [19] 109% | viability, T/C [20] 116% | viability, T/C [21] 131% | viability, T/C [22] 117% | viability, T/C [9] 112% | viability, T/C [10] 100% | viability, T/C [23] 111% | viability, T/C [24] 114% | viability, T/C [25] 116% | viability, T/C [26] 133% | viability, T/C [11] 100% | viability, T/C [12] 115% | viability, T/C [27] 105% | viability, T/C [28] 103% | viability, T/C [29] 136% | viability, T/C [30] 109% | viability, T/C [13] 85.2% | viability, T/C [14] 102% | viability, T/C [31] 101% | viability, T/C [32] 106% | viability, T/C [33] 120% | viability, T/C [34] 107% | viability, T/C [15] 94.8% | viability, T/C [16] 108% | viability, T/C (second compound 3.16 µM, first compound 0.316 µM) 94.3% | viability, T/C (second compound 3.16 µM, first compound 1 µM) 93.3% | viability, T/C (second compound 3.16 µM, first compound 3.16 µM) 106% | viability, T/C (second compound 3.16 µM, first compound 10 µM) 82.7% | viability, T/C [17] 82.7% | viability, T/C [18] 75.7% | viability, T/C (second compound 10 µM, first compound 0.316 µM) 93% | viability, T/C (second compound 10 µM, first compound 1 µM) 85.6% | viability, T/C (second compound 10 µM, first compound 3.16 µM) 69.6% | viability, T/C (second compound 10 µM, first compound 10 µM) 54.4%

CC(=O)c1c(C)c2cnc(Nc3ccc(N4CCNCC4)cn3)nc2n(C2CCCC2)c1=O
> 100 nM: IC50 (curve of compound)
inactive: viability, T/C (compound 0.000316 µM) 105% (2×) and 96.8% and 106% | viability, T/C (compound 0.001 µM) 90.8% [middle of 4 runs] | viability, T/C (compound 0.00316 µM) 115% [middle of 4 runs] | viability, T/C (compound 0.01 µM) 100% (2×) and 98.9% and 98.4% | viability, T/C (compound 0.0316 µM) 99% [middle of 4 runs] | viability, T/C (compound 0.1 µM) 83.8% [middle of 4 runs]
